Test system: H3K27 acetylation
Assay: Flow cytometry for H3K27ac after in vitro culture with inhibitors
Format: cell-based, mouse
Excerpt: Data are normalized to viable cell number and z-scores per metabolite. […] P=two-sided Student's t-test. The data are presented as the mean±SEM and individual data points for each animal. Cross indicates death of the animal. […] P=two-sided Student's t-test. Shown are the mean±SD and individual data points. […] Data are presented as mean±SD and individual data points. […] P=paired two-sided Student's t-test. Data are presented as the mean±SD. […] Data was normalized as in (a). P=two-sided Student's t-test. The data are presented as the mean±SEM. […] Experiment as in (h) (n=3 mice genotype). Data was normalized as in (a). P=two-sided Student's t-test. Data are presented as the mean±SD. FIGS. 3-D, Representative data from two independent experiments with n=3 biological replicates per group. FIG. 3E, Representative data from two independent experiments with two biological replicates per group. FIG. 3F, Representative data from two independent experiments. FIG. 3G, Representative data from two independent experiments with three biological replicates per group. FIG. 3H, Representative data from one experiment with four biological replicates per group. FIG. 3I, Representative data from one experiment with three biological replicates per group FIGS. 4A-4H show ACLY is a critical effector molecule downstream of PD-1. […] ITK-SYK^+ cells were FACS-sorted from ITK-[…]2 mice on d5 after TAM and 12 h anti-PD-L1 or isotype control antibody treatment (i.p., 200 μg). P=paired two-sided Student's t-test. Data are presented as the mean±SD. […] Spleen-derived single-cell suspensions were FACS-sorted from ITK-[…]2 mice on d5 after TAM and cultured in vitro overnight with anti-PD-L1 or isotype control antibodies and the PI3K inhibitors (“iPI3K”) Wortmannin (20 nM), LY294002 (20 μM), or DMSO. […] Spleen-derived lymphocytes, FACS-sorted from ITK-[…]2 and ITK-[…]2; Pdcd1^-/- mice on d5 after TAM were incubated for three days in vitro. P=two-sided Student's t-test. Data are presented as the mean±SD. […] Protein lysates were generated after 48 h in vitro culture. RNP, ribonucleoprotein. […] P=two-sided Logrank-test. […] ITK-SYK^+ cells were FACS-sorted from ITK-[…]2 (“Pdcd1^+/+”) and ITK-[…]2; Pdcd1^-/- (“Pdcd1^-/-”) mice on d5 after TAM, fixed, and processed for anti-H3K27ac ChIP-seq analysis. ChIP-seq, chromatin immunoprecipitation sequencing; TSS, transcription start site. FIG. 4B, Representative data from three independent experiments with three biological replicates per group. FIG. 4C, Representative data from two independent experiments with two biological replicates. FIGS. 4D and 4E, Representative data from 3 independent experiments. FIGS. 4F and 4G, Data from one experiment with n=5 mice per group. […] (8752, CST), and assessed by flow cytometry. […]

Compound	H3K27 acetylation in Pdcd1 deficient lymphoma cells (2-DG 1 mM, 4 h in vitro vs DMSO, p=0.0003)	histone acetylation (H3K27ac) in ITK-SYK+ cells (BMS-303141 15 μM vs DMSO vehicle control, 3 hours, 4 h)	dependency of H3K27ac on ACLY function in cells with pharmacologically inactivated PD-1 pathway (anti-PD-L1 vs isotype control pretreated mice, BMS-303141 15 μM, p=0.0131)
O=CC[C@@H](O)[C@H](O)[C@H](O)CO [2-DG, 2-deoxy-D-glucose]	reduction in H3K27 acetylation	–	–
COc1ccc(-c2ccccc2)cc1NS(=O)(=O)c1cc(Cl)cc(Cl)c1O [BMS-303141]	–	reduced histone acetylation	significantly higher

Reference: patent US20240316012A1, “METHODS FOR TREATING LYMPHOMA” (Northwestern University, priority 2023, published 2024)
